According to patent publication US11730712B2, “Functionalized long-chain hydrocarbon mono- and di-carboxylic acids and derivatives thereof, and their use for the prevention or treatment of disease” (ESPERVITA THERAPEUTICS, INC., priority 2021, dated 2023):
Where “and” joins values, the source holds several entries; their conditions need not be identical. Equal values may be shown once.

Legend:
[1] = test system: Hep3B human hepatocarcinoma cells; experiment: Cell proliferation assay (presto blue, 72 h); format: cell-based; details: for Hep3B cell proliferation compared to control, compound alone: 100 μM; for Hep3B cell proliferation compared to control, compound alone / IC50 / inhibition of Hep3B cell proliferation in combination with lenvatinib vs each agent alone / inhibition of Hep3B cell proliferation in combination with regorafenib vs individual effects / inhibition of Hep3B cell proliferation in combination with sorafenib vs each agent alone: 72 h; for IC50: Homo sapiens, Hep3B, read-out: Hep3B (IC50), anti-proliferation activity; for inhibition of Hep3B cell proliferation in combination with lenvatinib vs each agent alone: compound 100 μM + lenvatinib 0.5 μM; for inhibition of Hep3B cell proliferation in combination with regorafenib vs individual effects: compound 100 μM + regorafenib 1.5 μM; for inhibition of Hep3B cell proliferation in combination with sorafenib vs each agent alone: compound 100 μM + sorafenib 3 μM
Method: Cell cultures. Hep3B (ATCC) and Hepa1-6 (ATCC) cells were seeded in 96-well plates at a density of 3000 cells/well with complete media. On day 2, media in each well was aspirated and replaced with 100 μl of fresh complete media and cells were treated with or without Compound I-1, Compound I-32, Compound I1-84, and Compound I-85, in a concentration dependent manner. Then, cells were incubated in an incubator for 72 h. On day 5, 10 μl of presto blue (Invitrogen, cat #A13261) cell viability reagent was added in each 96-well plate and incubated at 37° C. for 1-2 h. After incubation, fluorescence was measured with an excitation/emission wavelength of 560/590 nm.
Proliferation assay. Hep3B (ATCC) and Hepa1-6 (ATCC) cells were seeded in 96-well plates at a density of 3000 cells/well with complete media. On day 2, media in each well was aspirated and replaced with 100 μl of fresh complete media and cells were treated with/without testing compounds in a concentration dependent manner. Then, cells were incubated in an incubator for 72 h. On day 5, 10 μl of presto blue (Invitrogen, cat #A13261) cell viability reagent was added in each 96-well plate and incubated at 37° C. for 1-2 h. After incubation, fluorescence was measured with an excitation/emission wavelength of 560/590 nm. Anti-proliferative combination effects of Compound I-1 or Compound I-32 and regorafenib were determined in Hep3B and Hepa1-6 cells. Drug combination interaction was determined by the Chou-Talalay method (23), which is based on well-known equations for different reaction sequences and mechanisms, and different types of inhibition. These equations provide the theoretical basis for the combination index (CI)-isobologram equation that allows quantitative determination of drug interactions, where CI<1, =1, and >1 indicate synergism, additive effect, and antagonism, respectively. CI is calculated based on in vitro measurements implemented in the Compusyn software (www.combosyn.com), a platform for drug combinations pharmacodynamics with automated simulations. The software calculates CI based on the Fractional Inhibition (Fa), which is the potency expressed by the average effect values for each drug concentrations as determined by in vitro experiments. The dose-effect data entries are utilized for automated computerized analysis by the Compusyn software.
Data entered was obtained by in vitro experiments performed as follows: Hep3B or Hepa 1-6 cells were plated in a 96-well format and cell proliferation rates were determined as described above. Cells were treated with 5 doses of each test agent alone at the following concentrations: compounds of the invention dosed at 1, 5, 10, 50, or 100 μM for both Hep3B and Hepa1-6 cells, regorafenib dosed at 0.015, 0.075, 0.15, 0.75, and 1.5 μM for Hep3B cells or 0.05, 0.25, 0.5, 2.5, 5 μM for Hepa 1-6 cells. […]. Data are shown as Fa-CI plots where CI is the combination index and Fa is fractional inhibition. Results were indicated as mean±standard deviation (SD). All bar diagrams and line graphs were prepared using Graph Pad Prism 8 software. Drug synergy was calculated using the CompuSyn software.
Methods: Hep3B cells (supplied by ATCC) and Hepa1-6 cells (supplied by ATCC) were seeded in 96-well plates at a density of 3000 cells/well with complete media. On day 2, the media in each well was aspirated and replaced with 100 μL of fresh complete media, and the cells were treated in a concentration dependent manner with either Compound I-1, Compound I-32, Compound I-84, Compound I-85, sorafenib, lenvatinib, Compound I-1 in combination with sorafenib. Compound I-1 in combination with lenvatinib, Compound I-32 in combination with sorafenib, or Compound I-32 in combination with lenvatinib. The cells were then incubated in an incubator at 37° C. for 72 h. On day 5, 10 μL of presto blue (Invitrogen, cat #A13261) cell viability reagent was added to each 96-well plate and incubated at 37° C. for 1-2 h. […]

[2] = biological target: T1, human ACLY (Homo sapiens, UniProt P53396); experiment: ATP-citrate lyase (ACLY) enzymatic assay (ADP-Glo); format: biochemical; details: recombinant human ACLY, Run 1-3, read-out: Compound IC50 (M) ACLY
T1 construct: human ACLY (P533%) (Met 1-Met 1101) expressed in Baculovirus-Insect Cells; purchased Sino Biological Inc. 11769-H07B; host or cells: Baculovirus-Insect Cells
Method: ATP citrate lyase was obtained from Sino Biological Inc. Cat #11769-H07B, Lot #LC08DE1701. It was prepared from a DNA sequence encoding the human ACLY (P533%) (Met 1-Met 1101) expressed in Baculovirus-Insect Cells, with a polyhistidine tag at the N-terminus. The recombinant human ACLY consists of 1120 amino acids and has a calculated molecular mass of 123 kDa. It migrates as an approximately 110 kDa band in SDS-PAGE under reducing conditions. The enzyme came as a lyophilized powder in sterile 20 mM Tris, 500 mM NaCl, pH 8.0, 10% glycine. Normally 5%-8% trehalose and mannitol are added as protectants before lyophilization. […]
To detect ADP produced from ACL assay, the ADP-Glo™ assay format from Promega, Madison, Wis., was used, to detect the conversion of ATP to ADP. […] This assay is performed in two steps: i) after the ACL-mediated enzymatic reaction that utilizes ATP and produces ADP, ADP-Glo™ Reagent is added to terminate the kinase reaction and deplete the remaining ATP, and ii) the Kinase Detection Reagent is added to convert ADP to ATP and allow the newly synthesized ATP to be measured using a luciferase/luciferin reaction. The light generated, measured in a luminometer, correlates to the amount of ADP generated in the ACL assay, which is indicative of ACL activity. […]

| Compound | Hep3B cell proliferation compared to control, compound alone [1] | IC50 [1] [nM] | synergism with sorafenib (CompuSyn CI), Hep3B cells ([1]; compound 5 μM and sorafenib 0.15 μM) | synergism with lenvatinib (CompuSyn CI), Hep3B cells ([1]; compound 10 μM and lenvatinib 0.05 μM) | inhibition of Hep3B cell proliferation in combination with lenvatinib vs each agent alone [1] | inhibition of Hep3B cell proliferation in combination with regorafenib vs individual effects [1] | inhibition of Hep3B cell proliferation in combination with sorafenib vs each agent alone [1] | synergism with lenvatinib (CompuSyn CI), Hep3B cells ([1]; compound and lenvatinib: 50 μM and 0.25 μM, 100 μM and 0.5 μM) | synergism with sorafenib (CompuSyn CI), Hep3B cells ([1]; compound and sorafenib: 1 μM and 0.03 μM, 50 μM and 1.5 μM, 100 μM and 3 μM) | synergism with sorafenib (CI), Hep3B cells ([1]; all tested concentrations: 1 μM and 0.05 μM, 5 μM and 0.15 μM, 10 μM and 0.3 μM, 50 μM and 1.5 μM, 100 μM and 3 μM) | synergism with lenvatinib (CompuSyn CI), Hep3B cells ([1]; compound 5 μM and lenvatinib 0.025 μM) | synergism with lenvatinib (CompuSyn CI), Hep3B cells ([1]; compound and lenvatinib: 1 μM and 0.005 μM, 10 μM and 0.05 μM, 50 μM and 0.25 μM, 100 μM and 0.5 μM) | IC50 [2] |
| --- | --- | --- | --- | --- | --- | --- | --- | --- | --- | --- | --- | --- | --- |
| CC(C)(CCCCc1ccc(CCCCC(C)(C)C(=O)O)cc1)C(=O)O [Compound I-1, 6-[4-(5-carboxy-5-methylhexyl)-phenyl]-2,2-dimethylhexanoic acid] | inhibited Hep3B cell proliferation compared to control | > 100000 | Modest synergism | Moderate synergism | significantly greater inhibition of Hep3B cell proliferation | greater inhibition of cell proliferation compared to their individual effects | significantly greater inhibition of Hep3B cell proliferation | significant synergism | significant synergism |  |  |  |  |
| CC(C)(CCCCc1cccc(CCCCC(C)(C)C(=O)O)c1)C(=O)O [Compound I-32, 6-[3-(5-carboxy-5-methylhexyl)-phenyl]-2,2-dimethylhexanoic acid] | inhibited Hep3B cell proliferation compared to control | > 100000 |  |  | significantly greater inhibition of Hep3B cell proliferation | greater inhibition of cell proliferation compared to their individual effects | significantly greater inhibition of Hep3B cell proliferation |  |  | synergism | Modest synergism | significant synergism |  |
| CC(C)(CCCCc1ccc(CCCCC(C)(C)C(=O)SCCNC(=O)CCNC(=O)[C@H](O)C(C)(C)COP(=O)(O)OP(=O)(O)OC[C@H]2O[C@@H](n3cnc4c(N)ncnc43)[C@H](O)[C@@H]2OP(=O)(O)O)cc1)C(=O)O [Compound I-1-CoA, 6-[4-(5-carboxy-5-methylhexyl)-phenyl]-2,2-dimethylhexanoic acid Coenzyme A ester] |  |  |  |  |  |  |  |  |  |  |  |  | 3.34e-06 M and 2.28e-06 M and 2.5e-06 M |
| CC(C)(CCCCc1cccc(CCCCC(C)(C)C(=O)SCCNC(=O)CCNC(=O)[C@H](O)C(C)(C)COP(=O)(O)OP(=O)(O)OC[C@H]2O[C@@H](n3cnc4c(N)ncnc43)[C@H](O)[C@@H]2OP(=O)(O)O)c1)C(=O)O [Compound I-32-CoA, 6-[3-(5-Carboxy-5-methylhexyl)-phenyl]-2,2-dimethylhexanoic acid Coenzyme A Ester] |  |  |  |  |  |  |  |  |  |  |  |  | 9.88e-07 M and 1.22e-06 M and 1.44e-06 M |
